The values below come from US5698567A, “Heterocyclic spiro compounds” (Adir Et Compagnie, priority 1995, dated 1997).

Test [1] relates to 5-lipoxygenase. As to the kind of experiment: Inhibition of the synthesis of LTB4 by the peritoneal PMN of rats in vitro (5-lipoxygenase-inhibiting activity). In kind it is cell-based, rat. The note with it: for LTB4 % Inhibition: rat peritoneal PMN; for LTB4 % Inhibition / IC50: A23187 10^-6 M; for IC50: rat peritoneal PMN in vitro. The text has this: 1.1 Determination of 5-1ipoxygenase-inhibiting activity in vitro (see Goldyne M. E., Burrish G. F., Poubelle P. and Borgeat P., Arachidonic Acid Metabolism among human mononuclear leukocytes. The Journal of Biological Chemistry. Vol. 259, N° 4, p. 8815-8819, 1984, and New Chang C. and Gin Wensu. Stimulation of 5-Lipoxygenase Activity in Polymorphonuclear Leukocytes of Rats by Caseinate Treatment. Biochemical Pharmacology. Vol. 36, N° 8, p. 3033-3036, 1987).
(§1) 5-Lipoxygenase-inhibiting activity was determined on peritoneal leukocytes of rats. Leukocytosis is induced in male OFA rats (IFFA CREDO) weighing 200-250 g by the intraperitoneal injection of 12% sodium caseinate. 18 hours later, the cells are collected by washing the abdominal cavity. The number of cells is adjusted to 2×10^6 /ml.
(§2) The cell suspension is incubated for 10 minutes at 37° C. in the presence of Ca^2+ 5×10^-4 M and Mg^2+ 2×10^-3 M and of various concentrations of the test products. The cells are then stimulated with the calcium ionophore A23187 at a concentration of 10^-6 M for 5 minutes at 37° C. Controls are carded out by incubating the cells with the solvent for the products: 2% DMSO.
After stopping the reaction at +4° C. and centrifugation, the quantity of LTB4 in ng/2×10^6 cells in the supernatants is determined by the E.I.A. method (Statlergenes France). The percentage inhibition is calculated as follows: [formula]
(§3) Metabolism of arachidonic acid by the peritoneal PMN of rats stimulated
(§4) for 5 minutes in vitro by the calcium ionophore (A23187): 10^-6 M.
(§5) Incubation of the products with the cells for 10 minutes prior to
(§6) stimulation with the ionophore.

For test [2], the system named is synthesis of PGE2 by the peritoneal PMN of rats. The experiment in a line: Inhibition of the synthesis of PGE2 by the peritoneal PMN of rats in vitro. In kind it is cell-based, rat. The settings on record: A23187; for IC50: rat peritoneal PMN in vitro; for inhibition at 100 µM: 10^-4 M. As to the method:
as §1, §2, §3, §4, §5, §6

Broadly, the IC50 is the concentration that inhibits the measured activity by half. In general, inhibition refers to the share of the control response that was lost under treatment.

Structures can show the parent of a compound that is named as a salt.

On to `O=C1NCC2(CCN(CC(O)c3ccc(OCc4ccc5ccccc5n4)cc3)CC2)O1` (racemic) [Example 5, (R,S)-8-{2-hydroxy-2-[4-(quinol-2-ylmethoxy)phenyl]ethyl}-3,8-diaza-1-oxa-2-oxospiro[4,5]decane], for which the “LTB4 % Inhibition” value in test [1] (10^-6 M) is 95%; in test [1] (10^-7 M) it was 15%. Further, the IC50 in test [2] is over 100 µM.
On to `O=C1NCC2(CCN(CC(c3ccccc3)c3ccc(OCc4ccc5ccccc5c4)cc3)CC2)O1` (racemic) [Example 7, (R,S)-8-{2-[4-(naphth-2-ylmethoxy)phenyl]-2-phenylethyl}-3,8-diaza-1-oxa-2-oxospiro[4,5]decane], for which, in test [1] (10^-7 M), the “LTB4 % Inhibition” value is 36%. This compound yielded an IC50 in test [1] of over 1 µM.
With `O=C1NCC2(CCN(CC(c3ccccc3)c3ccc(OCc4ccc(-c5ccccc5)cn4)cc3)CC2)O1` (racemic) [Example 9, (R,S)-8-{2-phenyl-2-[4-(5-phenylpyrid-2-ylmethoxy)phenyl]ethyl}-3,8-diaza-1-oxa-2-oxospiro[4,5]decane], in test [1], the IC50 was over 0.1 µM.
For the compound `c1ccc(C(CN2CCC3(CC2)OCCO3)c2ccc(OCc3ccc4ccccc4n3)cc2)cc1` (racemic) [Example 10, (R,S)-8-{2-phenyl-2-[4-(quinol-2-ylmethoxy)phenyl]ethyl}-8-aza-1,4-dioxaspiro[4,5]decane dihydrochloride], the “LTB4 % Inhibition” value is 92% in test [1] (10^-5 M) and 28% in test [1] (10^-7 M). The compound further displayed an IC50 in test [1] of over 0.1 µM.
Turning to `O=C1NC2(CCN(CC(c3ccccc3)c3ccc(OCc4ccc5ccccc5n4)cc3)CC2)CO1` (racemic) [Example 11, (R,S)-8-{2-phenyl-2-[4-(quinol-2-ylmethoxy)phenyl]ethyl}-1,8-diaza-3-oxa-2-oxospiro[4,5]decane], the “LTB4 % Inhibition” value in test [1] (10^-5 M) stood at 76%; in test [1] (10^-7 M), 38%. The same compound had an IC50 in test [1] of over 0.1 µM.
As for `O=C1OC2(CCN(CC(c3ccccc3)c3ccc(OCc4ccc5ccccc5n4)cc3)CC2)CN1CCc1ccccc1` (racemic) [Example 12, (R,S)-3-(2-phenylethyl)-8-{2-phenyl-2-[4-(quinol-2-ylmethoxy)phenyl]ethyl}-3,8-diaza-1-oxa-2-oxospiro[4,5]decane], the “LTB4 % Inhibition” value in test [1] (10^-5 M) was determined as 98%; in test [1] (10^-7 M) it was 53%. Besides, the IC50 is 0.1 µM in test [1] and under 10 µM in test [2]. The inhibition at 100 µM in test [2] (rat peritoneal PMN) came to 86%. In test [2] (10^-5 M, rat peritoneal PMN), testing at 10 µM gave an inhibition of 92%.
Turning to `CC1NC(=O)OC12CCN(CC(c1ccccc1)c1ccc(OCc3ccc4ccccc4n3)cc1)CC2` (racemic) [Example 13, (R,S), (R,S)-4-methyl-8-{2-phenyl-2-[4-quinol-2-ylmethoxy)phenyl]ethyl}-3,8-diaza-1-oxa-2-oxospiro[4,5]decane], the “LTB4 % Inhibition” value in test [1] (10^-5 M) is listed as 91%; in test [1] (10^-7 M), 21%. The IC50 in test [1] is over 0.1 µM.
As for `O=C1NCC2(CCN(C(c3ccccc3)c3ccc(OCc4ccc5ccccc5c4)cc3)CC2)O1` (racemic) [Example 23, (R,S)-8-{[4-(naphth-2-ylmethoxy)phenyl]phenylmethyl}-3,8-diaza-1-2-oxospiro[4,5]decane], in test [1] (10^-7 M), the “LTB4 % Inhibition” value worked out at 9%. The compound also had an IC50 in test [1] of over 1 µM.
On to `Cn1c(=O)ccc2cc(COc3ccc(C(c4ccccc4)N4CCC5(CC4)CNC(=O)O5)cc3)ccc21` (racemic) [Example 25, (R,S)-8-{[4-(1-methyl-2-oxo-1H-quinol-6-ylmethoxy)phenyl]phenylmethyl}-3,8-diaza-1-oxa-2-oxospiro[4,5]decane], for which the “LTB4 % Inhibition” value was determined as 7% in test [1] (10^-6 M) and 8% in test [1] (10^-7 M).
In turn, `O=C1NCC2(CCN(C(c3ccccc3)c3ccc(OCc4ccc(-c5ccccc5)cn4)cc3)CC2)O1` (racemic) [Example 26, (R,S)-8-{phenyl-[4-(5-phenylpyrid-2-ylmethoxy)phenyl]methyl}-3,8-diaza-1-oxa-2-oxospiro[4,5]decane] returned an IC50 in test [1] of over 0.1 µM.
On to `O=C1NCC2(CCN(CC(Cc3ccccc3)c3ccc(OCc4ccccc4)cc3)CC2)O1` (racemic) [Example 31, (R,S)-8-[2-(4-benzyloxyphenyl)-3-phenylpropyl]-3,8-diaza-1-oxa-2-oxospiro[4,5]decane hydrochloride], for which the “LTB4 % Inhibition” value in test [1] (10^-6 M) stood at 16%. Moreover, in test [1], the IC50 was over 1 µM.
In turn, `O=C1NCC2(CCN(CC(Cc3ccc(Cl)cc3)c3ccc(OCc4ccc(-c5ccccc5)cn4)cc3)CC2)O1` (racemic) [Example 35, (R,S)-8-{3-(4-chlorophenyl)-2-[4-(5-phenylpyrid-2-ylmethoxy)phenyl]propyl}-3,8-diaza-1-oxa-2-oxospiro[4,5]decane] came in with an IC50 in test [1] of over 1 µM.
Still for that read-out and setting: for `O=C1NCC2(CCN(CC(c3ccc(OCc4ccc5ccccc5n4)cc3)C3CCCC3)CC2)O1` (racemic) [Example 36, (R,S)-8-{2-cyclopentyl-2-[4-(quinol-2-ylmethoxy)phenyl]ethyl}-3,8-diaza-1-oxa-2-oxospiro[4,5]decane hydrochloride] the value was over 0.1 µM.
On to `O=C1NCC2(CCN(C(=O)C(c3ccc(OCc4ccc5ccccc5n4)cc3)C3CCCC3)CC2)O1` (racemic) [Example 43, (R,S)-8-{cyclopentyl-[4-(quinol-2-ylmethoxy)phenyl]acetyl}-3,8-diaza-1-oxa-2-oxospiro[4,5]decane hydrochloride], for which the “LTB4 % Inhibition” value in test [1] (10^-7 M) amounted to 8%. In test [1], the IC50 was over 0.1 µM.
For `O=C1NCC2(CCN(CCc3ccc(OCc4ccc5ccccc5n4)cc3)CC2)O1` [Example 2, 8-{2-[4-(quinol-2-ylmethoxy)phenyl]ethyl}-3,8-diaza-1-2-oxospiro[4,5]decane], the “LTB4 % Inhibition” value in test [1] (10^-6 M) came out at 90%. The same compound had an inhibition at 100 µM in test [2] (rat peritoneal PMN) of 23%. This compound yielded an IC50 in test [2] of over 100 µM.
In the case of `Cn1c(=O)ccc2cc(COc3ccc(CCN4CCC5(CC4)CNC(=O)O5)cc3)ccc21` [Example 3, 8-{2-[4-[(1-methyl-2-oxo-1H-quinol-6-yl)methoxy]phenyl]ethyl}-3,8-diaza-1-oxa-2-oxospiro[4,5]decane], in test [1], the IC50 was over 100 µM.
Take `O=C1NCC2(CCN(CC(=O)c3ccc(OCc4ccc5ccccc5n4)cc3)CC2)O1` [Example 28, 8-{2-oxo-2-[4-(quinol-2-ylmethoxy)phenyl]ethyl}-3,8-diaza-1-oxa-2-oxospiro[4,5]decane]: the “LTB4 % Inhibition” value in test [1] (10^-6 M) amounted to 37%. In addition, in test [1], the IC50 was over 1 µM.
Turning to `O=C1NCC2(CCN(C(=O)Cc3ccc(OCc4ccc5ccccc5n4)cc3)CC2)O1` [Example 29, 8-{[4-(quinol-2-ylmethoxy)phenyl]acetyl}-3,8-diaza-1-oxa-2-oxospiro[4,5]decane], the “LTB4 % Inhibition” value in test [1] (10^-6 M) is recorded as 18%; in test [1] (10^-7 M), 30%. Besides, in test [1], the IC50 was over 1 µM.
Take `O=C1NCC2(CCN(C(=O)c3ccc(OCc4ccc5ccccc5n4)cc3)CC2)O1` [Example 30, 8-[4-(quinol-2-ylmethoxy)benzoyl]-3,8-diaza-1-oxa-2-oxospiro[4,5]decane]: the “LTB4 % Inhibition” value in test [1] (10^-6 M) is listed as 14%. For the same compound, the IC50 in test [1] is over 1 µM.
Turning to `O=C1NCC2(CCN(CCc3ccccc3)CC2)O1` [fenspiride, 8(2-phenylethyl)-3,8-diaza-1-oxa-2-oxospiro[4,5]decane, reference compound], the “activity of reference product tested under the same conditions (Table 1)” value in test [1] (10^-4 M) was “inactive”.
